# Laboratory results as given in US9624233B2, “Compounds for treating pruritic conditions” (priority 2015, dated 2017).
# Experiments:
# Settings in all cases: 2.5E−05M
# α1A (h) = target: T1, α1A (h) (Homo sapiens, UniProt P35348); experiment: Abuse liability binding screen, α1A (h) (antagonist radioligand)
# T1 sequence (P35348 1-466): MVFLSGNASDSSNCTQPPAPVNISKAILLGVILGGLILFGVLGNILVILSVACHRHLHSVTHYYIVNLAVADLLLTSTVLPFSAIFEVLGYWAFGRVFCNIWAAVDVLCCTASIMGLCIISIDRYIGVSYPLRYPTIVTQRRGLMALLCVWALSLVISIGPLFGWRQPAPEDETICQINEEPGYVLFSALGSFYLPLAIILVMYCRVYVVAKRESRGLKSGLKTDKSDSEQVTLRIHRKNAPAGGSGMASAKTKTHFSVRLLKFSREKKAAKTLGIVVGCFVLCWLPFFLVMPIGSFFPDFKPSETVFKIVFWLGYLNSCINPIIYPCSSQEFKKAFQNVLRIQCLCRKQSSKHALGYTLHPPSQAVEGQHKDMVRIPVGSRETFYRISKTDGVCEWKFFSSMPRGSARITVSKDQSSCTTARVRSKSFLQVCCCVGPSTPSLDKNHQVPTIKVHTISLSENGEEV
# Description: (§1) […]. The abuse liability screen included 44 targets (receptors, transporters, on gated-channel systems) related to the dopamine, norepinephrine, serotonin, gamma-aminobutyric acid (GABA), acetylcholine, N-methyl-D-aspartate (NMDA) cannabinoid and opioid neurotransmitter systems as recommended in FDA Draft guidance on Assessment of Abuse Potential of Drugs, January 2010.
# (§2) Compound binding was calculated as a % inhibition of the binding of a radioactively labeled ligand specific for each target.
# (§3) Results showing an inhibition or stimulation higher than 50% are considered to represent significant effects of the test compounds.
# α2A (h) = target: T2, α2A (h) (Homo sapiens, UniProt P08913); experiment: Abuse liability binding screen, α2A (h) (antagonist radioligand)
# T2 sequence (P08913 1-465): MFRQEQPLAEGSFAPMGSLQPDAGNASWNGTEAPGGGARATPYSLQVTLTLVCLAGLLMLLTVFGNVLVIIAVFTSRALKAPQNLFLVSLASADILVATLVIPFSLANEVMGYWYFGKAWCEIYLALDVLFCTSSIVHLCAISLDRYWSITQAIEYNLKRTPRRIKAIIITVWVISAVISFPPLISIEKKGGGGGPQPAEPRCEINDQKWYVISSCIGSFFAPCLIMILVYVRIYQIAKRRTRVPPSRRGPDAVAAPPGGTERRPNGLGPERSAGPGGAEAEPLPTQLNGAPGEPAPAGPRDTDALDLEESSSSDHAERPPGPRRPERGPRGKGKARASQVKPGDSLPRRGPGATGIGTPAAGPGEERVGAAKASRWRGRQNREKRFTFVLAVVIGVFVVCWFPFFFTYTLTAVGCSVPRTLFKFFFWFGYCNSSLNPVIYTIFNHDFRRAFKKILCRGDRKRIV
# Description: as §1, §2, §3
# B2 (h) = B2 (h) (Homo sapiens, UniProt P07550); experiment: Abuse liability binding screen, B2 (h) (agonist radioligand)
# Chain of B2 (h) (P07550 whole entry): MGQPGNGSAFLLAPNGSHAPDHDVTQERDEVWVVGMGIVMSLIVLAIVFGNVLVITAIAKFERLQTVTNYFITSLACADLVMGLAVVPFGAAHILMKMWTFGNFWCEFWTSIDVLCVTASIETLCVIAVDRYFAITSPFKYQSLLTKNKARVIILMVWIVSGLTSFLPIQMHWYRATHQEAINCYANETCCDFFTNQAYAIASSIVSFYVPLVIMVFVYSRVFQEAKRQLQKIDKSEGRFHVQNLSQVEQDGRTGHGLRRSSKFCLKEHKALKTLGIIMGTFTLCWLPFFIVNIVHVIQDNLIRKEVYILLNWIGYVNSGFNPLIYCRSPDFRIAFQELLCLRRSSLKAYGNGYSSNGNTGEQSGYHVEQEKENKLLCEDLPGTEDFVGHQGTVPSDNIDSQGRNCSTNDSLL
# Description: as §1, §2, §3
# BZD (central) = experiment: Abuse liability binding screen, BZD (central) (agonist radioligand)
# Description: as §2
# D1 (h) = D1 (h) (Homo sapiens, UniProt P21728); experiment: Abuse liability binding screen, D1 (h) (antagonist radioligand)
# Chain of D1 (h) (P21728 whole entry): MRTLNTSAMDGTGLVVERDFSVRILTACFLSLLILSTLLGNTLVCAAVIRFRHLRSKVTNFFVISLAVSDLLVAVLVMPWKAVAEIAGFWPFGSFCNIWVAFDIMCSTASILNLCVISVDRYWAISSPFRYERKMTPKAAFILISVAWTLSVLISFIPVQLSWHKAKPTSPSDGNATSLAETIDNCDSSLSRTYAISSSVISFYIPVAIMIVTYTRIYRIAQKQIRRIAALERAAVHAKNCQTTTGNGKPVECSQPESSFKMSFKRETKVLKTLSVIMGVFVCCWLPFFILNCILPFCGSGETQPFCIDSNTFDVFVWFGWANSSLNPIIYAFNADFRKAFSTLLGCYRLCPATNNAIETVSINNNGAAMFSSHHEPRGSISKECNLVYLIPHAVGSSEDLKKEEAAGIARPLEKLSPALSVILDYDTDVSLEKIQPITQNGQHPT
# Description: as §1, §2, §3
# GABAA1 (h) (α1, β2, γ2) = GABAA1 (h) (α1, β2, γ2) (Homo sapiens, UniProt P14867+P18507+P47870); experiment: Abuse liability binding screen, GABAA1 (h) (α1, β2, γ2) (antagonist radioligand)
# Description: as §1, §2, §3
# [1] = tested on: glycine (strychnine−insensitive); type: binding
# Description: as §2
# M4 (h) = target: T3, M4 (h) (Homo sapiens, UniProt P08173); experiment: Abuse liability binding screen, M4 (h) (antagonist radioligand)
# T3 sequence (P08173 1-479): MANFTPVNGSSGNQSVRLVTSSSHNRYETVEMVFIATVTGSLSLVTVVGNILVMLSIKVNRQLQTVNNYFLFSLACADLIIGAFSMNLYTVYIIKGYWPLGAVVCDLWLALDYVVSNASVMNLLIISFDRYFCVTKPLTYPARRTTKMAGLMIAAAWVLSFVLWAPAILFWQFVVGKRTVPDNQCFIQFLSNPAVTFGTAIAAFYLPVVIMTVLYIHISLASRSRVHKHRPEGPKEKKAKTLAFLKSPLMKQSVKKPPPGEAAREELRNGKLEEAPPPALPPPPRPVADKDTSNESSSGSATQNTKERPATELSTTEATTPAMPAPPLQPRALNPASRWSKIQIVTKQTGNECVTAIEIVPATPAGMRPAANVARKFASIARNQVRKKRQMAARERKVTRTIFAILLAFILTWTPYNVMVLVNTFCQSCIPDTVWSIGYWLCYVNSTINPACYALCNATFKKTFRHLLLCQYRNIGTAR
# Description: as §1, §2, §3
# N neuronal α4β2 (h) = N neuronal α4β2 (h) (Homo sapiens, UniProt P17787+P43681); experiment: Abuse liability binding screen, N neuronal α4β2 (h) (agonist radioligand)
# Chain of N neuronal α4β2 (h) (P43681 29-627 limits assumed): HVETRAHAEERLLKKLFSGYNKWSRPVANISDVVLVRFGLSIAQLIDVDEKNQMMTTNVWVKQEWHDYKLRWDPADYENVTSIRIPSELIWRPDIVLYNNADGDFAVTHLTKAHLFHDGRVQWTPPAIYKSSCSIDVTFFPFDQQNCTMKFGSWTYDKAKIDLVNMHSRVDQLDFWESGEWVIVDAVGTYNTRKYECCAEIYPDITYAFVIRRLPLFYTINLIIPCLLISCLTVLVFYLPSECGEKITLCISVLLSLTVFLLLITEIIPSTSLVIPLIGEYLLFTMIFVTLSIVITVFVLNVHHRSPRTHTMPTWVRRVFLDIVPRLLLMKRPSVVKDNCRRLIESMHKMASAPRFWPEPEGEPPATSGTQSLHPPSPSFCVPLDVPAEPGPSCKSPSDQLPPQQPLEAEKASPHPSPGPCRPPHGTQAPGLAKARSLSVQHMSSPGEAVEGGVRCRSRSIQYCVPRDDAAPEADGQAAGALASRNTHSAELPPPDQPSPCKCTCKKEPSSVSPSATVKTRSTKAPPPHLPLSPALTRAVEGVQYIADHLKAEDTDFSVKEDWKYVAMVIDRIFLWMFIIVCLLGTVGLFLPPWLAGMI
# Chain of N neuronal α4β2 (h) (P17787 26-502): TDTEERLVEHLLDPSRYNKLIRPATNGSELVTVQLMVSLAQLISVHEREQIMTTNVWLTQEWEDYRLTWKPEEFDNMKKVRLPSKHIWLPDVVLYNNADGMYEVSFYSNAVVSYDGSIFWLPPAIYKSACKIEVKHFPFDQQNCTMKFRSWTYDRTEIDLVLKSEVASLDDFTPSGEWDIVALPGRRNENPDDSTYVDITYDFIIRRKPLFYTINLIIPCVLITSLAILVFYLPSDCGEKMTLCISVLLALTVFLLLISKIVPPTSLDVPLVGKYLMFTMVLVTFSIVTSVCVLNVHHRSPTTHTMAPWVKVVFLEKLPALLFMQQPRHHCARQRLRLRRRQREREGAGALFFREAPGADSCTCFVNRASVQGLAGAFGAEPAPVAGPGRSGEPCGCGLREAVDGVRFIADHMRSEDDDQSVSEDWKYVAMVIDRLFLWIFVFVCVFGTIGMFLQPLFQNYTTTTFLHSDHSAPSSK
# Description: as §2
# 5-HT3 (h) = target: T4, 5-HT3 (h) (Homo sapiens, UniProt P46098); experiment: Abuse liability binding screen, 5-HT3 (h) (antagonist radioligand)
# T4 sequence (P46098 24-478): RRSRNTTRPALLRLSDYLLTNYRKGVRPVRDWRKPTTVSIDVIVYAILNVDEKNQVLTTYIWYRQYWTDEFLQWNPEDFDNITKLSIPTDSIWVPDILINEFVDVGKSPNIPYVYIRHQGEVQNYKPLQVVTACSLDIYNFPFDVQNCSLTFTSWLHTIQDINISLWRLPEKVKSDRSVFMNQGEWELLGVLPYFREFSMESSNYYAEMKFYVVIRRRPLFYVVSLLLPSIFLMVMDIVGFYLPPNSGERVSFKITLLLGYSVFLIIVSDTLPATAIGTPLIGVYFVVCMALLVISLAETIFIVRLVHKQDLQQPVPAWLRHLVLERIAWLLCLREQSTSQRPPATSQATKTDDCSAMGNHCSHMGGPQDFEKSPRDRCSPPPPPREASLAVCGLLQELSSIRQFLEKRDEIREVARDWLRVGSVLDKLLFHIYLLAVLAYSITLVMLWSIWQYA
# Description: as §1, §2, §3
# Ca^2+ channel (N) = Ca^2+ channel (N) (Rattus norvegicus, UniProt Q02294); experiment: Abuse liability binding screen, Ca2+ channel (N) (antagonist radioligand)
# Chain of Ca^2+ channel (N) (Q02294 whole entry): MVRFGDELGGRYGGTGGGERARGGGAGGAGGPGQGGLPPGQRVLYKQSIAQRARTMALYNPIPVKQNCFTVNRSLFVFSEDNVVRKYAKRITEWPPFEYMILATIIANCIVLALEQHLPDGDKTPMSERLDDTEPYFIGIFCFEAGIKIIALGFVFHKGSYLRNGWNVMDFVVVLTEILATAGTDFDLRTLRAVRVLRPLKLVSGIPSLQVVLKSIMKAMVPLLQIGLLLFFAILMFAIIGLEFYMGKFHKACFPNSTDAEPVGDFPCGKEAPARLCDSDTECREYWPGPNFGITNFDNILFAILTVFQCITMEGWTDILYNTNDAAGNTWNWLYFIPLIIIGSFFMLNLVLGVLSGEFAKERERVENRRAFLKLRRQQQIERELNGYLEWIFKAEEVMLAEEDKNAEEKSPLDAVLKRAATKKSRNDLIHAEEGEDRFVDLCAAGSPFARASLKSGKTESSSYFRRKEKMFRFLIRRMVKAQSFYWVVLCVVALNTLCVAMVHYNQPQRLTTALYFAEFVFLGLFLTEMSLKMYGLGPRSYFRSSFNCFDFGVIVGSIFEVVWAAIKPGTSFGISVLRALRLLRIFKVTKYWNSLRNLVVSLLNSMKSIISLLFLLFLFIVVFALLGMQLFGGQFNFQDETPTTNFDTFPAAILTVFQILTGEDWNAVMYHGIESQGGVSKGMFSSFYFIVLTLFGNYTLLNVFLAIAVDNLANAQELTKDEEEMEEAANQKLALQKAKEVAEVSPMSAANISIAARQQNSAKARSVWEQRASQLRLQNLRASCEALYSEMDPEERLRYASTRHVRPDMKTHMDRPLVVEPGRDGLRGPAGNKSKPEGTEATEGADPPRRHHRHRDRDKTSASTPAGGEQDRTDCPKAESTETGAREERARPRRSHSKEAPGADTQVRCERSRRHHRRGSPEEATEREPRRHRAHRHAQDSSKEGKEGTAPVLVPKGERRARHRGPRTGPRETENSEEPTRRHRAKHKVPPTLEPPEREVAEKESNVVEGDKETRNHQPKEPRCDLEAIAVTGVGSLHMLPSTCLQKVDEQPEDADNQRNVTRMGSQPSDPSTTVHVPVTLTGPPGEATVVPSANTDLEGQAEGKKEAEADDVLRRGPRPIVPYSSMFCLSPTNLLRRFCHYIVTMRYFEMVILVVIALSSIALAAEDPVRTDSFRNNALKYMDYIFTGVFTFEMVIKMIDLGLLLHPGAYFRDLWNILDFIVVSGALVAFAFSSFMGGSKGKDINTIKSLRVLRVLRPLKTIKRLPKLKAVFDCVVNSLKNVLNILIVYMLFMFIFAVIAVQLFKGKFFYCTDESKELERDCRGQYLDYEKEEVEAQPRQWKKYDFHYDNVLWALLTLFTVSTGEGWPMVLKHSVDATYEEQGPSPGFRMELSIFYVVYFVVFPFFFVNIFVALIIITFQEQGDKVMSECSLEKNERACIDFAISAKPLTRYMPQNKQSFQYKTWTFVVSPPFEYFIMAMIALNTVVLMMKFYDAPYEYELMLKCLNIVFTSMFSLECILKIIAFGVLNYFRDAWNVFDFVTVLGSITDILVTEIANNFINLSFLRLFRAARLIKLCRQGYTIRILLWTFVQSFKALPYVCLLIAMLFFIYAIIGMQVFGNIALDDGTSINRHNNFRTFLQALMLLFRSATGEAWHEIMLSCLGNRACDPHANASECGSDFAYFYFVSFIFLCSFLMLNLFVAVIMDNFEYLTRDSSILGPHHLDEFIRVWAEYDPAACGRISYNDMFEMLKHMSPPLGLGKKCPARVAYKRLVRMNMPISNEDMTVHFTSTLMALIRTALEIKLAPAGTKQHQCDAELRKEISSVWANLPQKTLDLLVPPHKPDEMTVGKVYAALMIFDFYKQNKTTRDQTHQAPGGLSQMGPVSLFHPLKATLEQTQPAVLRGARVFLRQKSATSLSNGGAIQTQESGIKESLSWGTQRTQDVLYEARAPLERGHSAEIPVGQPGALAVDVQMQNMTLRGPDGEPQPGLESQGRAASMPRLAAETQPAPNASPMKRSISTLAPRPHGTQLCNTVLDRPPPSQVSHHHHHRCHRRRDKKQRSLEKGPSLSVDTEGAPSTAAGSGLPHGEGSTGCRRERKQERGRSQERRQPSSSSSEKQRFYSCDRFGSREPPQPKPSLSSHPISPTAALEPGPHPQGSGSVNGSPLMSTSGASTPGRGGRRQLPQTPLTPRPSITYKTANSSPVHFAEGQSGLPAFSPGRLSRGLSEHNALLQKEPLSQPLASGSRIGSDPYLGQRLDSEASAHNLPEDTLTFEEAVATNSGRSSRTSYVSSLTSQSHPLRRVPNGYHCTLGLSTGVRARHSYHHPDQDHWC
# Description: as §2
smiles,measurement,setting,value
"O=C(O)[C@H]1O[C@@H](Oc2ccc3c4c2O[C@H]2[C@@H](O)CC[C@@]5(O)[C@@H](C3)N(CC3CCC3)CC[C@]425)[C@H](O)[C@@H](O)[C@@H]1O [Compound M5, nalbuphine-3-beta-D-glucuronid]",% Inhibition of Control Specific Binding 1st,α1A (h),−0.1%
same,% Inhibition of Control Specific Binding 2nd,α1A (h),3.4%
same,% Inhibition of Control Specific Binding Mean,α1A (h),1.6%
same,% Inhibition of Control Specific Binding 1st,α2A (h),−0.5%
same,% Inhibition of Control Specific Binding 2nd,α2A (h),−5.7%
same,% Inhibition of Control Specific Binding Mean,α2A (h),−3.1%
same,% Inhibition of Control Specific Binding 1st,B2 (h),−4.6%
same,% Inhibition of Control Specific Binding 2nd,B2 (h),15.3%
same,% Inhibition of Control Specific Binding Mean,B2 (h),5.4%
same,% Inhibition of Control Specific Binding 1st,BZD (central),−13.2%
same,% Inhibition of Control Specific Binding Mean,BZD (central),−5.6%
same,% Inhibition of Control Specific Binding 1st,D1 (h),−12.1%
same,% Inhibition of Control Specific Binding 2nd,D1 (h),2.2%
same,% Inhibition of Control Specific Binding Mean,D1 (h),−5.0%
same,% Inhibition of Control Specific Binding 1st,"GABAA1 (h) (α1, β2, γ2)",−1.4%
same,% Inhibition of Control Specific Binding 2nd,"GABAA1 (h) (α1, β2, γ2)",−0.8%
same,% Inhibition of Control Specific Binding Mean,"GABAA1 (h) (α1, β2, γ2)",−1.1%
same,% Inhibition of Control Specific Binding 1st,[1],−7.7%
same,% Inhibition of Control Specific Binding 2nd,[1],−8.6%
same,% Inhibition of Control Specific Binding Mean,[1],−8.1%
same,% Inhibition of Control Specific Binding 1st,M4 (h),−7.9%
same,% Inhibition of Control Specific Binding 2nd,M4 (h),16.6%
same,% Inhibition of Control Specific Binding Mean,M4 (h),4.4%
same,% Inhibition of Control Specific Binding 1st,N neuronal α4β2 (h),0.8%
same,% Inhibition of Control Specific Binding 2nd,N neuronal α4β2 (h),−2.0%
same,% Inhibition of Control Specific Binding Mean,N neuronal α4β2 (h),−0.6%
same,% Inhibition of Control Specific Binding 1st,5-HT3 (h),3.2%
same,% Inhibition of Control Specific Binding 2nd,5-HT3 (h),10.9%
same,% Inhibition of Control Specific Binding Mean,5-HT3 (h),7.0%
same,% Inhibition of Control Specific Binding 1st,Ca^2+ channel (N),−10.9%
same,% Inhibition of Control Specific Binding 2nd,Ca^2+ channel (N),2.5%
same,% Inhibition of Control Specific Binding Mean,Ca^2+ channel (N),−4.2%
